{"source": "ChEMBL document CHEMBL3886595", "about": "“Compounds and compositions for inhibiting the activity of ABL1, ABL2 and BCR-ABL1” (2016)", "key": {"[1]": {"target": "T1, Tyrosine-protein kinase ABL1 (Homo sapiens, UniProt P00519)", "T1 sequence (P00519 whole entry)": "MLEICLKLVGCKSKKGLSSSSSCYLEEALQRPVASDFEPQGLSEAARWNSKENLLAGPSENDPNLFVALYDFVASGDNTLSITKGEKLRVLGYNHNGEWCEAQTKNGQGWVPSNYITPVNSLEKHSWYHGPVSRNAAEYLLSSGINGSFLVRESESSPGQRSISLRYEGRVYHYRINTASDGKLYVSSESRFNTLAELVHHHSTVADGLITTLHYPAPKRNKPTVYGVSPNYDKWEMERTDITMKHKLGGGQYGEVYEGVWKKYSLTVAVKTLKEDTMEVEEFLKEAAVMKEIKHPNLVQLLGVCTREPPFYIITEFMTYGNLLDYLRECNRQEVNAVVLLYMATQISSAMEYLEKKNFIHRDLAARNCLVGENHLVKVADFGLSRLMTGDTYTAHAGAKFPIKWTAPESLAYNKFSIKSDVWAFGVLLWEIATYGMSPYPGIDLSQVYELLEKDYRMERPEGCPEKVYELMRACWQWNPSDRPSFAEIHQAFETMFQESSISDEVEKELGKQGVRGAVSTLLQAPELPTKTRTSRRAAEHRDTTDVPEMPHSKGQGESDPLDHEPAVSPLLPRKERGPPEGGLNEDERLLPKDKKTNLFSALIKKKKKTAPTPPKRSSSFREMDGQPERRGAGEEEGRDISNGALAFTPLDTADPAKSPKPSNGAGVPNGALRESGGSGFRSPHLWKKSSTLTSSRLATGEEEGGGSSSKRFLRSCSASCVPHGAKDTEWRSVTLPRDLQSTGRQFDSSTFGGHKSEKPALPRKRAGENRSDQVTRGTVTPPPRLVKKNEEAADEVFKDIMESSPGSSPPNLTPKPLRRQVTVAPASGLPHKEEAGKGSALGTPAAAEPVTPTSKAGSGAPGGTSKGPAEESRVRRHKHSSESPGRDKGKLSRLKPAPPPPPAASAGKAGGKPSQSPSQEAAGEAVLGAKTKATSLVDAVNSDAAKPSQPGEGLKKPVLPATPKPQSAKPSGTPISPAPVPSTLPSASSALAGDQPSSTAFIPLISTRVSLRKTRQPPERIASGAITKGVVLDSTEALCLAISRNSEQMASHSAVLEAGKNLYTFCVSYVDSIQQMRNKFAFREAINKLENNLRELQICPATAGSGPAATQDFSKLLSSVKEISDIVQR", "assay": "Radio ABL1 (64-515) Assay: For determination of ABL kinase activity, the radiometric filter-binding assay was used. The assay was performed by mixing 10 uL of the compound pre-diluted with 10 uL of ATP (20 uM ATP with 0.1 uCi [γ-33P]-ATP) with the phospho-acceptor peptide poly[Ala6Glu2LysHBr5Tyr1]=polyAEKY) in 20 mM Tris/HCl pH 7.5, 1 mM DTT, 10 mM MgCl2, 0.01 mM Na3VO4, 50 mM NaCl. 10 uL of …", "description": "10 uL of enzyme (ranging between 5 nM to 20 nM) was added to initiate the reaction. Pre-incubation of enzyme with compounds (when stated) was performed by exposing the enzyme to compounds prior to addition of the substrate mixture (ATP and/or peptide substrate). […] Filter-plates were washed 3x with 0.5% H3PO4, followed by addition of 30 uL scintillation cocktail (Microscint, Perkin Elmer) per well and then analysed in a TopCount NXT scintillation counter (Perkin Elmer)."}, "[2]": {"target": "T1, Tyrosine-protein kinase ABL1", "assay": "Caliper ABL : The assay plates were prepared by addition of 50 nL per well of compound solution in 90% DMSO. The kinase reactions were started by stepwise addition of 4.5 uL per well of peptide/ATP-solution (50 mM HEPES, pH 7.5, 1 mM DTT, 0.02% BSA, 0.6% DMSO, 10 mM beta-glycerophosphate, and 10 uM sodium orthovanadate, 20 mM MgCl2, 2 mM MnCl2, 4 uM ATP, 4 uM peptide (FITC-Ahx-EAIYAAPFAKKK-NH2)) …"}}}
{"molecule": "O=C(Nc1ccc(OC(F)(F)F)cc1)c1cnc(N2CC[C@H](CO)C2)c(-c2cncc(F)c2)c1", "values": [{"measurement": "IC50", "setting": "[1]", "value": 6.3, "unit": "nM"}, {"measurement": "IC50", "setting": "[2]", "value": 0.6, "unit": "nM"}]}
{"molecule": "Cc1ccc(-c2cc(C(=O)Nc3ccc(OC(F)(F)F)cc3)cnc2N2CC[C@H](N)C2)cn1", "values": [{"measurement": "IC50", "setting": "[1]", "value": 7, "unit": "nM"}]}
